Two compounds from patent US7566737B2 (Genfit, priority 2002, dated 2009) can be followed below.

The subject of assay [1] is LDL. Briefly: Protection against LDL oxidation by copper (conjugated diene formation). It counts as biochemical. On the procedure:
LDL oxidation is an important alteration and plays a predominant role in the establishment and development of atherosclerosis (Jurgens G et al., 1987). […] Unless otherwise indicated, the reagents were from Sigma (St Quentin, France). LDL were prepared according to the method described by (Havel R J et al., 1955). The solutions of test compounds were prepared at 10^−2 M concentration in bicarbonate buffer (pH 9) and diluted in PBS to obtain final concentrations ranging from 0.1 to 100 μM for a total ethanol concentration of […]. Prior to oxidation, EDTA was removed from the LDL preparation by dialysis. Oxidation then took place at 30° C. by addition of 100 μl of 16.6 μM CuSO4 solution to 160 μL of LDL (125 μg protein/ml) and 20 μl of a test compound solution. The formation of dienes, the species under observation, was followed by measuring optical density at 234 nm in the samples treated with the compounds but in the presence or absence of copper. Optical density at 234 nm was measured every 10 minutes for 8 hours in a thermostated spectrophotometer (Tecan Ultra 380). The compounds were considered to have antioxidant activity when they induced a longer lag phase and reduced the rate of oxidation and the amount of dienes formed in comparison with the control sample.

Assay [2] concerns hApoE2 Knock-in transgenic mice. In words: Effects on triglycerides and cholesterol metabolism in vivo. Also on record: species or system mouse. Summed up: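 hApoE2 knock-in mice (n=6/group, matched for body weight and plasma lipids) dosed once daily by intragastric gavage in carboxymethylcellulose for 7 or 8 days at indicated doses. Terminal blood on EDTA; total cholesterol and triglycerides measured colorimetrically.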

Assay [3] relates to HaCat cells. Briefly: Antioxidant properties on cell cultures (carboxy-H2DCFDA fluorescence, AAPH stress), keratinocytes. The assay is classed as cell-based, human. To be noted: 25 μM for 24 h, AAPH 750 μM. On the procedure:
The reduction in the intensity of the emitted fluorescence signal was determined in cells treated with the compounds in the following manner.
Prior to stress the cells with an oxidative agent such as AAPH (CAS number 2997-92-4), cells are incubated with compounds of interest at 25 μM for 24 h. Then the culture medium is discarded and cells are rinsed two times with PBS. Cells are then incubated 30 min at 37° C. with a cell-permeant indicator for reactive oxygen species that is nonfluorescent until the acetate groups are removed by intracellular esterases and oxidation occurs within the cell 5-(and-6)-carboxy-2′,7′-dichlorodihydrofluorescein diacetate (carboxy-H2DCFDA). The probes are prepared in PBS and incubated at the final concentration of 25 μM. After the incubation with the probe, cells are rinsed and incubated another 30 min with the oxidative solution containing AAPH at 750 μM in culture medium without phenol red and serum.
The fluorescence is then measured with a fluorimeter with the following wavelength, […].
Two different cell types have been tested with the inventive compounds. Human normal primary fibroblasts and HaCat cells which are a human keratinocyte cell line.

Setting [4] is: 200, 50, 12.5 and 3.125 mg/kg/day for 8 days.

For the compound `Cc1cc(/C=C/C(=O)c2ccc(Br)cc2)cc(C)c1OC(C)(C)C(=O)O` [Compound 41, 1-[4-bromophenyl]-3-[3,5-dimethyl-4-carboxydimethylmethyloxyphenyl]prop-2-en-1-one], the “lag phase of conjugated diene formation” value in assay [1] (10^−4M, FIG. 1-12, copper alone 120 minutes) amounted to 411 min. In assay [1] (10^−4M, FIG. 1-13, copper alone 1.8), the “rate of conjugated diene formation” value was 0.54 nmol/min/mg of LDL. Besides, in assay [1] (FIG. 1-14, copper alone 372), the “maximum amount of conjugated dienes formed” value is recorded as 71 nmol per mg of LDL. For the same compound, in assay [2] (50 mg/kg/day for 8 days), the “cholesterol in lipoparticle subfraction (exclusion chromatography)” value is “decrease”, the plasma cholesterol entry is on record as “decrease”, the plasma triglycerides result is “decrease” and the “triglycerides in lipoparticle subfraction (exclusion chromatography)” value was “decrease”. The “antioxidant properties on cell cultures (in words)” value in assay [3] is given as “antioxidant properties”.
For the compound `CSc1ccc(C(=O)/C=C/c2cc(C)c(OC(C)(C)C(=O)O)c(C)c2)cc1` [Compound 29, 1-[4-methylthiophenyl]-3-[3,5-dimethyl-4-carboxydimethylmethyloxyphenyl]prop-2-en-1-one], in assay [1] (10^−4M, FIG. 1-7, copper alone 82 minutes), the “lag phase of conjugated diene formation” value came out at 135 min. In assay [2] (50 mg/kg/day for 7 or 8 days, FIGS. 4-13, 4-15, 4-17, 4-19), the plasma cholesterol entry is “decrease”. Also, in assay [2] (50 mg/kg/day for 7 or 8 days, FIGS. 4-14, 4-16, 4-18, 4-20), the plasma triglycerides result is listed as “decrease”. Also, in assay [2] (setting [4]), the “cholesterol in lipoparticle subfraction (exclusion chromatography)” value is recorded as “decrease”, the plasma cholesterol level result is on record as “dose-dependent decrease”, the plasma triglycerides level result is recorded as “dose-dependent decrease” and the “triglycerides in lipoparticle subfraction (exclusion chromatography)” value is “decrease”. For the same compound, in assay [3], the “antioxidant properties on cell cultures (in words)” value is given as “antioxidant properties”.
